Reference: patent publication US20250213494A1, “METHODS AND COMPOSITIONS FOR POTENTIATION OF A LIGAND” (priority 2022, published 2025)

System: RXFP1 gene expression in human fibroblast like synoviocytes
Assay: RXFP1 gene expression by qPCR after corticosteroid treatment under fibrotic conditions
Format: cell-based
Details: qPCR (FIG. 3)
Text: RXFP1 gene expression after treatment with (left) dexamethasone, (middle) methylprednisolone, and (right) cortisone under fibrotic conditions.

SMILES: C[C@]12CCC(=O)C=C1CC[C@@H]1[C@@H]2C(=O)C[C@@]2(C)[C@H]1CC[C@]2(O)C(=O)CO [cortisone]
- RXFP1 gene expression: increases RXFP1 gene expression
